Laboratory results taken from patent US5574059A, “Treating disorders mediated by vascular smooth muscle cell proliferation” (priority 1995, dated 1996).
“Also recorded” adds a separate entry of the source.

How the values were obtained:
α2 -adrenergic receptors = assay: specific binding of 3H-PAC and 3H-rauwolscine to smooth muscle cell membranes; parameters: species or system rat; conditions: for specific binding of 3H-PAC / 3H-rauwolscine: 5 nM ligand, non-specific binding defined by 100 μM cold ligand; for binding selectivity of radioligand, in words (α2-adrenergic receptors): with epinephrine competition
Method: (§1) Primary cultures of rat-aortic smooth muscle cells were prepared by a modification (described in Erlinge, Do, et al, Am. J. Physiol. 265, H1089-1097, 1993) of the method of Meyer-Lehnert and Schrier (Meyer-Lehnert, H., et al, Hypertension 13,350-361, 1989), the disclosure of these cited articles being incorporated herein by reference. Briefly, rats were killed by anesthetic overdose and the aorta were removed and incubated with collagenase (2 mg/ml) in Dulbecco's modified Eagle's minimum essential medium (DMEM). The vessel was stripped of adventitia, cut longitudinally and the intima scraped away. After further collagenase treatment, the remaining tissue was passed 20 times through 18 and 16 gauge needles. The resulting cell suspension was centrifuged at 500 × g for 5 minutes and resuspended in DMEM containing penicillin (100 units/ml), streptomycin (100 μg/ml), 2 mM L-glutamine and 10% fetal calf serum. The suspended cells were plated in T-75 flasks, cultured until confluent, and subcultured in 100 mm plates. The confluent cells were harvested and membranes were prepared. Cell viability was determined by trypan blue exclusion. Smooth muscle cells were phenotypically defined by immunostaining with anti-smooth muscle actin (Sigma). The cultured cells were usually used for only about 10 passages after which they were replaced by freshly prepared cells.
Membranes were prepared from the cultured cells as described in Regunathan et al, Biochem. Pharmacol. 45, 1667-1675 (1993). Membranes were incubated with 5 nM of ^3 H-idazoxan, ^3 H-PAC or ^3 H-rauwolscine with non-specific binding defined by 100 μM cold ligand as described above.

I2 imidazoline receptors [1] = assay: inhibition of 3H-idazoxan (5 nM) binding to rat aortic smooth muscle cell membranes; conditions: for Ki: Table 2, rat aortic smooth muscle cell membranes, read-out: Ki; for Ki / inhibition of 3H-idazoxan binding, in words: 3H-idazoxan 5 nM
Method: (§2) Binding to I2 imidazoline receptors is determined by the following assay. Membranes are prepared from cultured cells for ligand binding as described in Regunathan, S., et al, Biochem. Pharmacol. 45, 1667-1675 (1993) and Regunathan, S., et al, J. Neurosci. Res. 34, 681-688 (1993) and the disclosure in these on this is incorporated herein by reference. In particular, harvested rat aortic smooth muscle cells are homogenized in Hepes-sucrose buffer (pH 7.4) with a Teflon-glass homogenizer and centrifuged at 1000 × g for 10 minutes. The pellets are suspended in ice-cold Tris-HCl buffer (pH 7.7) with 5mM ethylene diamine tetracetic acid and homogenized using a Polytron (Brinkman Instruments) for 10 seconds. The homogenate is centrifuged at 40,000 × g for 30 minutes to produce a membrane pellet. The membrane pellet is washed three times by resuspending in buffer and re-centrifuging. The washed pellet is suspended in fresh Tris-HCl buffer (pH 7.4) to provide approximately 100 μg protein per assay tube. Binding assays are performed in Tris-HCl buffer (pH 7.7) using 5 nM of […]. Non-specific binding is defined by 100 μM of unlabelled idazoxan which will inhibit the specific binding of ^3 H-idazoxan. Thus the binding remaining in the presence 100 μM of idazoxan is due to non-specific binding and this will be substracted from total binding to calculate the specific binding. Following incubation at 25° C. for 30 minutes, reaction is terminated by rapid vacuum filtration over Whatman GF/B filters and washed with 10 ml of ice-cold buffer. Filters are suspended in scintillation fluid and radioactivity counted in a liquid scintillation counter. Membrane protein is assayed by Coomassie Blue method (Pierce) using bovine serum albumin as standard.
Determination of inhibition constant (Ki) for each drug is determined as follows: The binding of ^3 H-idazoxan to membranes of vascular smooth muscle cells is determined in the presence of 0.1 nM to 100 μM concentrations of potential drug. The percent inhibition of specific binding of ^3 H-idazoxan by each concentration is calculated and plotted against concentration. The data is analyzed by non-linear curve fitting program, LIGAND and the IC50 value for each potential drug is calculated. The affinity for each drug (Ki) for I2 imidazoline receptors is calculated using the formula Ki =IC50 /1+L/Kd where L is the concentration of ^3 H-idazoxan used for binding and Kd is the dissociation constant for ^3 H-idazoxan for I2 imidazoline receptors. The dissociation constant (Kd) is determined by Scatchard analysis of the saturation binding of ^3 H-idazoxan using the formula [formula] where B and F are the amount of bound and free ligand, respectively, and Bmax is the number of binding sites.
as §1, with “exclusion.” for “exclusion. Smooth muscle cells were phenotypically defined by immunostaining with anti-smooth muscle actin (Sigma). The cultured cells were usually used for only about 10 passages after which they were replaced by freshly prepared cells.”

[2] = tested on: rat aortic smooth muscle cells; assay: serum-stimulated proliferation, 3H-thymidine incorporation into DNA; format: cell-based; conditions: 10% fetal calf serum stimulated; for 3H-thymidine incorporated (IC50), N symbol / IC50: 24 h; for IC50: Rattus norvegicus, read-out: 3H-thymidine incorporated (IC50)
Method: (§3) Inhibition of serum-stimulated proliferation of rat aortic smooth muscle cells is determined as follows: The antiproliferative effect of potential drug is determined by measuring the incorporation of ^3 H-thymidine into cellular DNA. Exposure of quiescent vascular smooth muscle cell to serum, which contains many growth factors, results in a large increase in cellular proliferation as measured by ^3 H-thymidine incorported into DNA. The inhibitory effect of potential drug on serum-stimulated proliferation is tested by adding a drug before the addition of serum and determining if the serum-stimulated proliferation is reduced. […] In that event, antagonizing of the antiproliferative effect of idazoxan is determined by adding antagonist before the addition of idazoxan to serum-stimulated vascular smooth muscle cells.
In this experiment, the proliferation of vascular smooth muscle cells was determined by measuring DNA replication. The incorporation of ^3 H-thymidine into DNA was used to measure the replication of DNA as described in Erlinge, D., et al, Am. J. Physiol. 265, H1089-H1097 (1993) which is incorporated herein by reference.
(§4) Rat aortic smooth muscle cells prepared as described in In Vitro Example 1 were plated into 24-well plates at a density of about 30,000 cells/well in 10% fetal calf serum (FCS). After 48 hours, the cells were starved in 0.5% FCS for another 48 hours to decrease proliferation and induce quiescence. The medium was replaced by serum-free medium 24 hours prior to addition of drug (drugs are described below) and 10% fetal calf serum or only 10% fetal calf serum in the case of the control. The cells were then incubated for 24 hours and ^3 H-thymidine (1 μCi/well) was added at hour 20. At the end of the 24 hour period, the medium was aspirated and the cells were washed three times with phosphate-buffered saline and twice with ice-cold trichloroacetic acid. Fixed cells were then solubilized in 0.2M NaOH and sonicated. A 100 μl aliquot was used for scintillation counting.

[3] = tested on: rat aortic smooth muscle cells; assay: antagonism of the antiproliferative effect in serum-stimulated smooth muscle cells; format: cell-based
Method: as §3
as §4, with “After” for “Rat aortic smooth muscle cells prepared as described in In Vitro Example 1 were plated into 24-well plates at a density of about 30,000 cells/well in 10% fetal calf serum (FCS). After”
To test this, the effect of tolazoline (100 μM) on the concentration/response curve was determined.

I2 imidazoline receptors [4] = assay: saturation/specific binding of 3H-idazoxan to smooth muscle cell membranes (Scatchard analysis); parameters: species or system rat
Method: as §2, with “Membrane protein is assayed by Coomassie Blue method (Pierce) using bovine serum albumin as standard.” left out
Primary cultures of rat-aortic smooth muscle cells were prepared by a modification (described in Erlinge, Do, et al, Am. J. Physiol. 265, H1089-1097, 1993) of the method of Meyer-Lehnert and Schrier (Meyer-Lehnert, H., et al, Hypertension 13,350-361, 1989), the disclosure of these cited articles being incorporated herein by reference. […] Cell viability was determined by trypan blue exclusion.

Row | SMILES | Ki (I2 imidazoline receptors [1]) | inhibition of vascular smooth muscle cell proliferation, in words [2] | 3H-thymidine incorporated (IC50), N symbol [2] | inhibition of 3H-idazoxan binding, in words (I2 imidazoline receptors [1]) | other results
1 | Nc1cc(Cl)c(NC2=NCCN2)c(Cl)c1 [^3 H-PAC] |  |  |  |  | specific binding of 3H-PAC / 3H-rauwolscine (α2 -adrenergic receptors): greater than 70%; binding selectivity of radioligand, in words (α2-adrenergic receptors) (α2 -adrenergic receptors): primarily bind to α2 -adrenergic receptors
2 | Clc1cccc(Cl)c1N=C1NCCN1 [Clonidine] | 2.5 ± 0.65 µM | had no effect | N |  | 
3 | N=C(N)N/N=C/c1c(Cl)cccc1Cl [Guanabenz] | 51 ± 6.5 µM |  |  | low | 
4 | COC(=O)[C@H]1[C@H]2C[C@H]3c4[nH]c5ccccc5c4CCN3C[C@H]2CC[C@@H]1O [Rauwolscine] | > 100 µM | had no effect | N | without effect | effect of rauwolscine on the anti-proliferative response [3]: blocked
5 | COC(=O)C1C(O)CCC2CN3CCc4c([nH]c5ccccc45)C3CC21 (stereo not drawn) [^3 H-rauwolscine] |  |  |  |  | specific binding of 3H-PAC / 3H-rauwolscine (α2 -adrenergic receptors): greater than 70%; binding selectivity of radioligand, in words (α2-adrenergic receptors) (α2 -adrenergic receptors): primarily bind to α2 -adrenergic receptors
6 | c1ccc2c(c1)OCC(C1=NCCN1)O2 (stereo not drawn) [^3 H-idazoxan] |  |  |  |  | specific binding of 3H-idazoxan (I2 imidazoline receptors [4]; 5 nM ligand, non-specific binding defined by 100 μM cold ligand): greater than 70%; Kd (I2 imidazoline receptors [4]; Scatchard analysis, single-site fit, in presence of 10 μM epinephrine): 0.0089 ± 0.0012 µM; binding selectivity of radioligand, in words (non-adrenergic sites) (I2 imidazoline receptors [4]; with epinephrine competition): binds almost exclusively to non-adrenergic sites
7 | c1ccc2c(CC3=NCCN3)cccc2c1 [Naphazoline, 2-(1-naphthylmethyl) imidazoline] |  |  |  |  | IC50 [2]: 52.3 ± 5.6 µM
8 | CNC[C@H](O)c1ccc(O)c(O)c1 [Epinephrine] |  |  |  |  | reduction of 3H-idazoxan binding (I2 imidazoline receptors [1]; even at 100 μM epinephrine, failed to reduce by greater than): ≤ 10%; inhibition of specific binding of 3H-PAC (α2 -adrenergic receptors; epinephrine 10 μM): completely inhibited; inhibition of specific binding of 3H-rauwolscine (α2 -adrenergic receptors; epinephrine 10 μM): completely inhibited
9 | N=C(N)NC(=O)c1nc(Cl)c(N)nc1N [Amiloride] | 75 ± 9.6 µM |  |  | low | 
10 | Cc1ccc(N(CC2=NCCN2)c2cccc(O)c2)cc1 [Phentolamine] | 10.5 ± 1.4 µM |  | N |  | 
11 | C1COC(NC(C2CC2)C2CC2)=N1 [Rilmenidine] | 85 ± 9 µM | had no effect | N | low | 
12 | c1ccc(CC2=NCCN2)cc1 [Tolazoline] | 0.256 ± 0.023 µM | without any effect; also recorded: failed to inhibit cellular proliferation | N | binding with high affinity | effect on the concentration/response curve for idazoxan ([3]; tolazoline 100 μM): markedly shifted the concentration/response curve for idazoxan to the right
13 | c1ccc(C2CC2)c(OCC2=NCCN2)c1 [Cirazoline, cyclopropyl phenoxy imidazoline] |  |  |  |  | IC50 [2]: 286 ± 19 µM
14 | COc1nc(C)nc(Cl)c1N=C1NCCN1 [Moxonidine] | 55 ± 4 µM | had no effect | N | low | 
